Laboratory results as given in ChEMBL document CHEMBL3792297, “Studies on phenothiazines: New microtubule-interacting compounds with phenothiazine A-ring as potent antineoplastic agents” (Bioorg Med Chem, 2016).

Tests used:
Ovis aries = species: Ovis aries; assay: Inhibition of sheep brain tubulin polymerization at 100 uM by DAPI staining-based fluorimetric method
[1] = Inhibition of sheep brain tubulin polymerization by DAPI staining-based fluorimetric method; parameters: species or system Ovis aries
Tubulin = Tubulin (Bos taurus, UniProt Q6B856+Q862L2+Q862F3); assay: Inhibition of bovine tubulin polymerization preincubated for 30 mins followed by GTP addition measured after 20 mins by spectrophotometric method; assay type: protein assay
[2] = Growth inhibition of human SF295 cells after 48 hrs by SRB assay; assay type: functional; settings: SF-295, 48 h
[3] = Growth inhibition of human DU145 cells after 48 hrs by SRB assay; assay type: functional; settings: DU-145, 48 h
A498 = assay: Growth inhibition of human A498 cells after 48 hrs by SRB assay; assay type: functional; settings: A498, 48 h
[4] = Growth inhibition of human OVCAR3 cells after 48 hrs by SRB assay; assay type: functional; settings: OVCAR-3, 48 h
[5] = Inhibition of sheep brain tubulin polymerization preincubated for 1 hr measured after 30 mins by turbidimetric-spectrophotometric method; parameters: species or system Ovis aries

| SMILES | inhibition (Ovis aries) [%] | IC50 [1] [nM] | further results |
| --- | --- | --- | --- |
| COc1ccc(C(=S)N2c3ccccc3Sc3ccccc32)cc1F | 14 | – | – |
| COc1ccc(C(=O)c2cc(OC)c(OC)c(OC)c2)cc1O [PHENSTATIN] | 99 | 3400 | IC50 (Tubulin): 1000 nM; GI50 [2]: 52 nM; GI50 [3]: 34 nM; GI50 (A498): 380 nM; GI50 [4]: 2.3 nM |
| O=C(c1ccc(F)cc1Cl)N1c2ccccc2Sc2ccccc21 | 44 | – | – |
| COc1cc([C@@H]2c3cc4c(cc3C[C@H]3COC(=O)[C@@H]32)OCO4)cc(OC)c1OC [DESOXYPODOPHYLLOTOXIN] | 100 | 1800 | – |
| C=C(c1ccc(OC)c(O)c1)c1cc(OC)c(OC)c(OC)c1 | – | – | IC50 [5]: 1500 nM |
| Cc1cc(C(=O)N2c3ccccc3Sc3ccccc32)ccc1Br | 43 | – | – |
| COc1ccc(C(=O)N2c3ccccc3Sc3ccccc32)cc1N | 95 | 9500 | – |
| O=C(c1ccc(OC(F)(F)F)c(F)c1)N1c2ccccc2Sc2ccccc21 | 48 | – | – |
| S=C(c1ccc2c(c1)Sc1ccccc1N2)c1c[nH]c2ccccc12 | 10 | – | – |
